{"source": "patent US20250213531A1", "about": "“5-MEO-DTM FOR THE TREATMENT OF BIPOLAR DISORDER” (GH RESEARCH IRELAND LIMITED, priority 2022, published 2025)", "test_system": "patients with postpartum depression (PPD)", "assay": "Clinical trial of inhaled 5-MeO-DMT (IDR) in postpartum depression, one patient (6 mg then 12 mg)", "conditions": "n=1", "procedure": "The single-arm, open-label clinical trial will involve 15 adult female patients with clinically diagnosed postpartum depression (PPD).\nThe second dose (12 mg) will only be administered if: • a. […] The 6 mg dose was safe and well-tolerated according to the investigator, • c. Any psychoactive effects (PsE) of the prior dose have subsided, and • d. Pre-dose vital parameters and forced expiratory volume in one second (FEV1) are in normal range, or if outside of the normal range, are not clinically significant according to the investigator. • 3. Similarly, a third dose (18 mg) will only be administered if: • a. […] The 12 mg dose was safe and well-tolerated according to the investigator, and • c. Any PsE of the prior dose have subsided, and • d. Pre-dose vital parameters and forced expiratory volume in one second (FEV1) are in normal range, or if outside of the normal range, are not clinically significant according to the investigator.\nThe patients will be assessed for a peak psychedelic experience (based on a patient-scored visual analogue scale, the PE scale), sedation, and other endpoints after dosing. Follow-up visits are planned for Day 1, and Day 7 after the dosing day.", "data": [{"smiles": "COc1ccc2[nH]cc(CCN(C)C)c2c1", "note": "[5-MeO-DMT]", "values": [{"measurement": "standard criteria for MADRS response (at least 50% improvement) and MADRS remission (total score <=10)", "result": "fulfilled"}, {"measurement": "tolerability of inhalation procedure", "result": "well tolerated with no inhalation-related adverse events"}, {"measurement": "adverse events (cramping left abdominal pain, headache)", "setting": "Day 0", "result": "mild, short-lasting and resolved spontaneously"}, {"measurement": "ECG, safety laboratory analyses, CADSS", "setting": "ECG 3 hours, laboratory 7 days, CADSS 3 hours, 1 day, 7 days", "result": "unremarkable"}]}]}
